Target: Human immunodeficiency virus type 1 integrase (Human immunodeficiency virus 1, UniProt Q7ZJM1)
Assay: Inhibition of HIV1 integrase strand transfer activity

Sequence of Human immunodeficiency virus type 1 integrase (Q7ZJM1 whole entry): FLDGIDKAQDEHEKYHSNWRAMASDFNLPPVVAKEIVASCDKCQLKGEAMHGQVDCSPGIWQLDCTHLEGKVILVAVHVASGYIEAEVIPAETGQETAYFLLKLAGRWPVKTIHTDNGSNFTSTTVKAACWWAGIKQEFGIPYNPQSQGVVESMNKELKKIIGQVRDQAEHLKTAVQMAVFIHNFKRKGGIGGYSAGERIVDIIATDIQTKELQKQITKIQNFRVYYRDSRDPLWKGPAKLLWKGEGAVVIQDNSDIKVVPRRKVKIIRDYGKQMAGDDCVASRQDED

Row | SMILES | IC50 [nM]
1 | O=C(N[C@H]1CCc2ccccc21)c1nc(-c2cccs2)nc(O)c1O | 617
2 | O=C(NCn1ccnc1)c1nc(-c2cccs2)nc(O)c1O | 17000
3 | O=C(NCc1ccccc1F)c1nc(-c2cccs2)nc(O)c1O | 162
4 | O=C(Nc1cccc2ccccc12)c1nc(-c2cccs2)nc(O)c1O | 214
5 | O=C(NCc1cccs1)c1nc(-c2cccs2)nc(O)c1O | 100
6 | O=C(NCc1cncs1)c1nc(-c2cccs2)nc(O)c1O | 2510
7 | O=C(NCc1nccs1)c1nc(-c2cccs2)nc(O)c1O | 200
8 | COc1ccccc1CNC(=O)c1nc(-c2cccs2)nc(O)c1O | 91.2
9 | O=C(NCn1cncn1)c1nc(-c2cccs2)nc(O)c1O | 50100

These reach a lower IC50. Values come first.

Row | IC50 [nM] | SMILES
10 | 10 | O=C(NCC1CCCCC1)c1nc(-c2cccs2)nc(O)c1O
11 | 30.2 | O=C(Nc1ccc2ccccc2c1)c1nc(-c2cccs2)nc(O)c1O
12 | 10 | O=C(NCc1cc2ccccc2s1)c1nc(-c2cccs2)nc(O)c1O
13 | 50.1 | O=C(NCc1csc2ccccc12)c1nc(-c2cccs2)nc(O)c1O
14 | 20 | O=C(N[C@@H]1CCc2ccccc21)c1nc(-c2cccs2)nc(O)c1O

Source: ChEMBL document CHEMBL1153757, “Multivariate QSAR study of 4,5-dihydroxypyrimidine carboxamides as HIV-1 integrase inhibitors” (Eur J Med Chem, 2009)
